Test: gradient 5% acetonitrile 3 min, to 50% in 2 min, to 85% in 15 min, held 3 min, 100 µL/min
Settings: column: Zorbax Extend-C18 2.1 x 50 mm; eluents: water / acetonitrile, 0.1% formic acid
Summary of the method: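 Retention times of pure standards were taken from adduct peaks that were selected by computer and manually inspected. Over 3 months, mixtures of ~100 molecules were run by HPLC–quadrupole time-of-flight mass spectrometry in positive and negative ionization mode. The Zorbax Extend-C18 column (2.1 × 50 mm, 1.8 μm) ran at 100 μL/min in water and acetonitrile, each containing 0.1% formic acid, with 40 μL dead volume and 900 μL dwell volume.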

| Compound | RP-LC retention time [s] |
| --- | --- |
| Cc1cccc(Nc2nc(C(=O)NCCC3=CCCCC3)nc3ccccc23)c1 | 995 |
| O=C(Cn1ncc2c3ccccc3n(Cc3ccc(F)cc3)c2c1=O)N1CCN(c2ccccn2)CC1 | 689 |
| COc1ccc(NC(=O)c2cnc3c(c2)c(=O)n(C)c(=O)n3-c2ccccc2)c(OC)c1 | 844 |
| CCN(CC)c1cc(CNC(=O)Nc2cc(Cl)ccc2OC)ccn1 | 690 |
| Cn1cc(CCN2CCC(C(=O)NCC3CCCCC3)CC2)c2cccnc21 | 619 |
| Clc1ccccc1-c1nc(-c2ccc(-n3ccnc3)nc2)no1 | 749 |
| O=C(CCn1cnc2cc(-c3noc(COc4ccc(Cl)cc4)n3)ccc21)N1CCCC1 | 786 |
| COCCN(CC1(C)CCOCC1)C(=O)NCc1cccc(F)c1 | 768 |
| Cc1cc2nc(NCCCO)n(CC(=O)c3cc(C(C)(C)C)c(O)c(C(C)(C)C)c3)c2cc1C | 1030 |
| O=C(Cn1nc2c3cc(-c4ccc(F)cc4)nn3ccn2c1=O)Nc1ccc(Br)cc1F | 989 |
| Cc1cc(C)cc(C(=O)N2CCN(c3nc(C)cc(N4CCCCC4)n3)CC2)c1 | 765 |
| CC(CNC(=O)C1CCN(C(=O)C2Sc3ccccc3NC2=O)CC1)c1ccccc1 (stereo not given) | 776 |
| COCCN1C(=O)c2ccccc2C(C(=O)NCc2ccc(F)cc2)C12CCCCC2 (stereo not given) | 877 |
| Nc1ccc(-c2nc3ccccc3s2)cc1 | 803 |
| O=C(c1ccc(Cl)cc1)N1CCN(c2nc(CN3CCOCC3)cs2)CC1 | 638 |
| Nc1ccccc1-c1nc2ccncc2[nH]1 | 708 |
| O=C(CN1c2ccc(Br)cc2-c2ccccc2S1(=O)=O)NCc1cccnc1 | 686 |
| CCCOc1nccnc1NC1CCN(C(=O)c2ccn(CC)n2)CC1 | 722 |
| Cc1ccc(C(=O)N2CCc3c(c(C(=O)N4CCCC(C(=O)NC5CC5)C4)nn3C)C2)cc1 (stereo not given) | 661 |
| COc1ccc(-n2ccc(=O)c(-c3nc(-c4ccc(Br)cc4)no3)n2)cc1 | 984 |
| Cn1cc(C(=O)NCc2ccccn2)c2cccnc21 | 552 |
| N#CCSC1=NS(=O)(=O)c2cc(F)ccc2N1 | 622 |
| O=C(CCCN1CCC(O)(c2cccc(C(F)(F)F)c2)CC1)c1ccc(F)cc1 | 805 |

| Compound | RP-LC retention time [s] |
| --- | --- |
| O=C(Nc1nccnc1C(=O)NCCCN1CCCC1)c1ccccc1 | 609 |
| O=C(Nc1ccc2c(c1)OCCO2)N1CCCC(Cn2c(C3CC3)nc3cccnc32)C1 (stereo not given) | 645 |
| COc1ccc(OCc2noc(CNC(=O)CSc3nc4ccccc4o3)n2)cc1 | 806 |
| COc1cc([N+](=O)[O-])ccc1NC(=O)c1cccc(Br)c1 | 1030 |
| CCc1ccc(NC(=O)C2CCCN(c3ncnc4c3nc3n4CCCCC3)C2)cc1 (stereo not given) | 824 |
| Cc1ccccc1NS(=O)(=O)c1cc(-c2[nH]ncc2C(=O)N2CCCC2)oc1C | 700 |
| Cc1cc(C)c(S(=O)(=O)NCc2c(-c3ccccc3)nc3sc(C)nn23)c(C)c1 | 1020 |
| Cc1nc2nc(-c3ccccc3)nn2c(Sc2ccc(N)cc2)c1C | 863 |
| O=S(=O)(Nc1ccc(Cl)cc1)c1ccc2nncn2c1 | 712 |
| Cc1ccc(C)c(-c2csc(Nc3ccc(Br)cn3)n2)c1 | 1330 |
| CCOc1ccc(S(=O)(=O)N2CCC(C(=O)NC)CC2)cc1C | 761 |
| CCN1C(=O)C(C)(C(=O)Nc2cc(C)ccc2C)Oc2cccnc21 (stereo not given) | 744 |
| CCn1c(N2CCCC(C(=O)NCc3cccnc3)C2)cc(=O)n(C)c1=O (stereo not given) | 575 |
| O=C(CCc1nc2ccccc2s1)N1[C@H]2CC[C@@H]1c1cnc(-c3ccccc3)nc1C2 | 902 |
| Cc1cc(COC(=O)c2cc3ccccc3o2)no1 | 866 |
| COc1ccc(Cc2nc3nccc(-c4cc5ccccc5o4)n3n2)cc1 | 1090 |
| Cn1c(=O)sc2cc(S(=O)(=O)N3CCC(C(=O)NCCc4cccs4)CC3)ccc21 | 813 |
| Cn1cc(S(=O)(=O)N2CCCCC2)cc1C(=O)NC1CCCCC1 | 953 |
| O=C(Nc1cccc(C(F)(F)F)c1)C1CCCN(c2ncnc3c2nc2n3CCCCC2)C1 (stereo not given) | 958 |
| O=C(CCNc1c(-c2ccccc2)nc2cnccn12)NCC1CCCO1 (stereo not given) | 576 |
| Cc1cc(=O)n(CC(=O)Nc2ccccc2F)c(-c2ccc(F)cc2)n1 | 1040 |
| Cc1ccc(-n2nc3c(=O)n(CCCC(=O)NCC4CCCO4)nc(C)c3c2C)cc1 (stereo not given) | 731 |
| CCN1CCCn2cc(S(=O)(=O)Nc3cccc(C)c3)cc2C1=O | 724 |

| Compound | RP-LC retention time [s] |
| --- | --- |
| O=C(Cn1nc2n(c1=O)CCCCC2)Nc1cccc(F)c1 | 701 |
| O=C(NCC1(CO)CC1)C(=O)Nc1cccc(N2CCCCC2=O)c1 | 610 |
| Cn1c(=O)n(CCN2CCOCC2)c(=O)c2c1nc1n2CCCN1c1ccc(Br)cc1 | 638 |
| CC(C)(C)C(=O)Nc1cnc(N2CCNCC2)c(C(=O)N2CCCC2)c1 | 588 |
| CCOC(=O)c1cccc(NC(=O)CCc2ccc3nc(CC)[nH]c3c2)c1 | 638 |
| CCc1noc(-c2cccn2Cc2cc(F)cc(F)c2)n1 | 1160 |
| CCOC(=O)c1c(C)oc2nc(C)nc(NCc3ccc(OC)cc3OC)c12 | 1140 |
| O=C(Cn1nc2c(N3CCc4ccccc4C3)nccn2c1=O)NC1CCCCC1 | 865 |
| c1ccc(-c2nnc3sc(-c4ccc5c(c4)OCO5)nn23)nc1 | 759 |
| CCCN1C(=O)COc2ccc(-c3noc(-c4ccc(OC)cc4OC)n3)cc21 | 1100 |
| O=C1/C(=C/c2ccc(Cl)c(Cl)c2)CN(C(=O)CCN2CCOCC2)C/C1=C\c1ccc(Cl)c(Cl)c1 | 881 |
| CCN1CCN(CCCNC(=O)c2ccc3nc(C(C)C)oc3c2)CC1 | 667 |
| COc1cccc(N2CCN(Cc3nc(-c4ccc(N5CCCCC5)nc4)no3)CC2)c1 | 930 |
| Cc1cc2c(cc1NC(=O)CCc1ccccc1)n(C)c(=O)n2C | 715 |
| Cc1noc2nc(C)n(CC(=O)Nc3cccc4c3CCCC4)c(=O)c12 | 871 |
| CCOc1ccc(S(=O)(=O)N2CCCC(C(=O)N3CCOCC3)C2)cc1 (stereo not given) | 777 |
| Cc1ccc(N2CCN(S(=O)(=O)c3cc4c(s3)CCN(C(=O)C3CC3)C4)CC2)cc1 | 1020 |
| CN(CCCNC(=O)C1CCN(c2nc3ccccc3n(C)c2=O)CC1)C1CCCCC1 | 650 |
| CCn1c(=O)c(C)nc2cc(-c3noc(C(C)NC(=O)c4ccco4)n3)ccc21 (stereo not given) | 866 |
| Cn1c(=O)c(N2CCCC(C(=O)NCc3cccc(Br)c3)C2)nc2ccccc21 (stereo not given) | 998 |
| COc1cccc(-c2nc(NCc3cccnc3)ncc2C(=O)O)c1 | 576 |
| Cn1c(CCNC(=O)c2cccc(C#N)c2)nc2cccnc21 | 601 |
| CCN(CC)CCCNC(=O)C1CCCN(c2ncc(-c3ccccc3)cn2)C1 (stereo not given) | 673 |

| Compound | RP-LC retention time [s] |
| --- | --- |
| CCOc1ccccc1-c1noc(Cn2c(=O)n(Cc3ccccc3Cl)c(=O)c3sccc32)n1 | 1160 |
| CCN(CC)CCNS(=O)(=O)c1cc(-c2cc(C)[nH]n2)sc1C | 589 |
| COc1ccc(C(=O)N2CCN(c3ccc(-c4nc(C)cs4)cn3)CC2)cc1OC | 736 |
| CC1CN=C2C=C(N3CCN(S(=O)(=O)Cc4cccc(Cl)c4)CC3)N=CN21 (stereo not given) | 627 |
| O=C(Nc1cccc(-c2nnc3n2CCCC3)c1)c1ccn[nH]1 | 595 |
| O=C(Nc1cccnc1)C1CCCN(S(=O)(=O)c2cc(-c3noc(C4CCCC4)n3)cs2)C1 (stereo not given) | 825 |
| Cc1cccc(Nc2nc(CC(=O)N3CCC(C(N)=O)CC3)cs2)n1 | 539 |
| Fc1ccccc1-c1noc(N2CCOCC2)n1 | 796 |
| Cc1ccc(NC(=O)N2CCCC(Cn3c(C4CC4)nc4cccnc43)C2)cc1F (stereo not given) | 717 |
| COc1ccc(S(=O)(=O)N2CC3CN(C(=O)CC(C)C)CC(C2)O3)cc1 | 759 |
| COc1ccc(OC)c(N2C=C(C#N)S(=O)(=O)c3ccc(F)cc32)c1 | 921 |
| O=C(CN1C(=O)CCC1=O)N1CCC(c2noc(-c3ccccn3)n2)C1 (stereo not given) | 608 |
| O=C(NCC1(N2CCOCC2)CCOC1)Nc1ccccc1 (stereo not given) | 572 |
| Cc1c(C(=O)NCc2c(F)cccc2F)c(C(F)(F)F)nn1C(C)C | 867 |
| O=C(Cc1ccc([N+](=O)[O-])cc1)NCc1nnnn1-c1ccc(F)cc1 | 701 |
| O=C(COc1cccc2ccc(N3CCOCC3)nc12)NCC1CCCO1 (stereo not given) | 564 |
| Cc1cccc(Nc2c(-c3ccccc3)nc3cnccn23)c1C | 981 |
| O=C(CN1CCC(c2nc(-c3cccc(F)c3)no2)CC1)Nc1ccc2c(c1)OCO2 | 719 |
| Cc1ccc(NC(=O)CC2SC3=NCCN3C2=O)cc1 (stereo not given) | 578 |
| CC(C)CNC(=O)c1ccc(-n2cc(CNC(=O)C3CC3)cn2)cc1 | 682 |
| Cc1ccc(S(=O)(=O)Nc2ccc(-c3cn4ccccc4n3)cc2)cc1 | 628 |
